From ChEMBL document CHEMBL2169792, “Synthesis of new 4-thiazolidinone-, pyrazoline-, and isatin-based conjugates with promising antitumor activity” (J Med Chem, 2012) come the findings set out here.

What all share (type): functional
One test concerns NCI-H522. As to the kind of experiment: Cytotoxicity against human NCI-H522 cells assessed as cell growth at 10 uM after 48 hrs by SRB assay. The conditions noted are these: NCI-H522, 48 h, read-out: Activity.
Test [1] in a line: Cytotoxicity against human leukemia cells after 48 hrs by SRB assay. The note with it: Leukemia cell; for CC50: read-out: LC50 (the source's name). For orientation: Sulforhodamine B stains cellular protein and so reports cell mass.
Test [2] is described as follows: Cytotoxicity against human colon cancer cells after 48 hrs by SRB assay. The conditions noted are these: Cancer cell lines.
The nature of test [3]: Cytotoxicity against human prostate cancer cells after 48 hrs by SRB assay. The note with it: Cancer cell lines.
A short description of test [4]: Cytotoxicity against human melanoma cells after 48 hrs by SRB assay. The conditions noted are these: Melanoma cell; for CC50: read-out: LC50 (the source's name).
Test [5] can be described thus: Cytotoxicity against human renal cancer cells after 48 hrs by SRB assay. The conditions noted are these: Cancer cell lines.
Test [6] is described as follows: Cytotoxicity against human ovarian cancer cells after 48 hrs by SRB assay. The conditions noted are these: Cancer cell lines.
Test [7] in a line: Cytotoxicity against human CNS cancer cells after 48 hrs by SRB assay. The conditions noted are these: Cancer cell lines.
A short description of test [8]: Cytotoxicity against human breast cancer cells after 48 hrs by SRB assay. The conditions noted are these: Cancer cell lines.
Test [9] is described as follows: Cytotoxicity against human non-small cell lung cancer cells after 48 hrs by SRB assay. The conditions noted are these: Cancer cell lines; for CC50: read-out: LC50 (the source's name).
In the next test the test system is U-251. The test is described as follows: Cytotoxicity against human U251 cells assessed as cell growth at 10 uM after 48 hrs by SRB assay. The note with it: U-251, 48 h, read-out: Activity.

In the case of `COc1ccc(-c2cc(-c3ccc(OC)cc3)n(C3C(=O)Nc4ccc(Br)cc43)n2)cc1` (stereo not given), the growth at 10 µM in the test with NCI-H522 was 88.6%.
Broadly, the GI50 is the concentration giving 50% growth inhibition. A lower GI50 goes with greater sensitivity of the cells. The term TGI denotes the concentration giving total growth inhibition. By LC50 is commonly meant the concentration that kills 50% of the test population. A low value points to greater toxicity. On to `COc1ccc(C2=NN(C3=NC(=O)/C(=C4\C(=O)Nc5ccc(Cl)cc54)S3)C(c3ccc(OC)cc3)C2)cc1` (stereo not given), for which the GI50 in test [1] was found to be 0.28 µM; in test [2], 0.21 µM; in [3] it was 0.25 µM; in test [4], 0.19 µM; in test [5] it was 0.19 µM; in test [6] it was 0.23 µM. Besides, the GI50 is 0.2 µM in test [7], 0.22 µM in test [8] and 0.2 µM in test [9]. Further, the TGI in [1] was found to be 75.2 µM; in test [2], 0.43 µM; in test [3], 0.71 µM; in [4], 0.38 µM; in test [5] it was 0.39 µM; in [6], 21.2 µM. The results for the TGI in test [7], in [8] and in test [9] were 0.42 µM, 0.5 µM and 0.44 µM, respectively. For the same molecule, the CC50 was found to be 100 µM in test [1], 33.9 µM in test [4] and 64.2 µM in test [9]. Further, the growth at 10 µM with NCI-H522 was 0.8%. Also, in test [2], the LC50 (concentration lethal to 50% of cells) was 58.7 µM. Further, the figures for the LC50 in [3] and in test [5] were 100 µM and 50.5 µM, respectively. Further, the LC50 (concentration causing 50% net cell kill) in test [6] turned out to be 83.5 µM; in [8] it was 75.2 µM. The same molecule returned an LC50 (concentration giving 50% net cell kill) in [7] of 35.5 µM.
As for `O=C1Nc2ccccc2C1n1nc(-c2ccccc2)cc1-c1ccc(Cl)cc1` (stereo not given), the growth at 10 µM in the test with NCI-H522 turned out to be 76.6%.
`COc1ccc(C2=NN(C3=NC(=O)/C(=C4\C(=O)Nc5ccccc54)S3)C(c3ccc(OC)cc3)C2)cc1` (stereo not given): the growth at 10 µM in the test with U-251 was 44.7%. The GI50 in test [1] amounted to 100 µM; in test [2] it was 100 µM; in test [3], 100 µM; in [4], 100 µM; in [5], 85.2 µM; in [6] it was 92.2 µM. The GI50 in test [7] is 43.9 µM; in test [8], 81.5 µM; in test [9], 88.1 µM. Further, the TGI in [1], in test [2], in test [3], in [4], in [5] and in test [6] was 100 µM each time. Moreover, the TGI in test [7] was 89.2 µM; in test [8] it was 99.6 µM; in test [9], 91.5 µM. Moreover, the CC50 in test [1], in test [4] and in [9] was 100 µM throughout. Further, the LC50 (concentration lethal to 50% of cells) in [2] worked out at 100 µM. Further, the LC50 in [3] and in test [5] was 100 µM each time. Moreover, the LC50 (concentration causing 50% net cell kill) in [6] and in test [8] was 100 µM each time. Moreover, the LC50 (concentration giving 50% net cell kill) in test [7] was found to be 100 µM.
In the case of `Cc1ccc2c(c1)/C(=C1\SC(N3N=C(c4ccccc4)CC3c3ccc(Cl)cc3)=NC1=O)C(=O)N2` (stereo not given), the growth at 10 µM in the test with U-251 was -54%. For the same molecule, the GI50 turned out to be 0.39 µM in test [1]; 0.23 µM in test [2]; 0.31 µM in [3]; 0.3 µM in test [4]; 0.24 µM in test [5]; 0.26 µM in [6]. Besides, the GI50 in test [7] is 0.24 µM; in test [8], 0.8 µM; in test [9], 0.21 µM. The TGI in [1] amounted to 39.4 µM; in test [2] it was 0.35 µM; in [4] it was 0.67 µM; in test [5], 0.52 µM; in test [7] it was 0.32 µM; in [8], 100 µM. In addition, in test [9], the TGI turned out to be 0.62 µM. In addition, the figures for the CC50 in test [1], in test [4] and in test [9] were 85.2 µM, 100 µM and 100 µM, respectively. Further, in test [2], the LC50 (concentration lethal to 50% of cells) worked out at 100 µM. In addition, the LC50 in test [3] and in [5] was 100 µM each time. The LC50 (concentration causing 50% net cell kill) in test [6] and in test [8] was 100 µM in each case. Further, the LC50 (concentration giving 50% net cell kill) in test [7] was 75.2 µM.
Turning to `O=C1Nc2ccccc2C1n1nc(-c2ccc3ccccc3c2)cc1-c1ccc(Cl)cc1` (stereo not given), in the test with NCI-H522, the growth at 10 µM was determined as 90.8%.
Still for that read-out and setting: the result for `COc1ccc(-c2cc(-c3ccc(OC)cc3)n(C3C(=O)Nc4ccccc43)n2)cc1` (stereo not given) reads 87.5%.
`COc1ccc(C2CC(c3ccc4ccccc4c3)=NN2C2=NC(=O)/C(=C3\C(=O)Nc4ccccc43)S2)cc1` (stereo not given): in the test with U-251, the growth at 10 µM was -26.3%. Moreover, the GI50 in [1] came out at 17.5 µM; in test [2], 1.68 µM; in test [3], 0.36 µM; in test [4] it was 4.8 µM; in test [5] it was 0.87 µM; in [6], 0.97 µM. Besides, the GI50 in test [7] is 0.67 µM; in test [8], 5.96 µM; in test [9] it was 0.62 µM. Moreover, the TGI was 59.6 µM in [1]; 12.4 µM in [2]; 2.47 µM in [3]; 27 µM in test [4]; 13.6 µM in test [5]; 24.2 µM in [6]. For the same molecule, the TGI in test [7] is 12.6 µM; in test [8], 32.8 µM; in test [9], 4.03 µM. The CC50 in [1] was 97.5 µM; in [4], 64.1 µM; in test [9], 48.7 µM. The molecule also displayed an LC50 (concentration lethal to 50% of cells) in [2] of 38.3 µM. In addition, the LC50 worked out at 100 µM in test [3] and 51.3 µM in test [5]. Further, the LC50 (concentration causing 50% net cell kill) amounted to 66.9 µM in [6] and 73.7 µM in test [8]. Also, the LC50 (concentration giving 50% net cell kill) in test [7] worked out at 48.2 µM.
As for `CN(C)c1ccc(C2CC(c3ccccc3)=NN2C2=NC(=O)/C(=C3\C(=O)Nc4ccc(Br)cc43)S2)cc1` (stereo not given), the growth at 10 µM with U-251 was -51.1%. Further, the GI50 in test [1] was 0.31 µM; in [2], 0.2 µM; in test [3], 0.27 µM; in [4] it was 0.2 µM; in test [5] it was 0.2 µM; in test [6], 0.25 µM. Also, the figures for the concentration for 50% growth inhibition (GI50) in [7], in [8] and in test [9] were 0.21 µM, 0.22 µM and 0.22 µM, respectively. For the same molecule, the TGI in [1] came to 1.29 µM; in [2], 0.42 µM; in test [3], 0.72 µM; in test [4], 0.46 µM; in test [5], 0.45 µM; in [6], 0.69 µM. Moreover, the TGI in test [7] stood at 0.45 µM; in test [8], 0.51 µM; in test [9], 0.54 µM. Further, the CC50 in [1] was 84.8 µM; in test [4] it was 7.65 µM; in test [9], 17 µM. Besides, in [2], the LC50 (concentration lethal to 50% of cells) amounted to 1.22 µM. In addition, the figures for the LC50 in test [3] and in test [5] were 55.3 µM and 7.47 µM, respectively. The figures for the LC50 (concentration causing 50% net cell kill) in test [6] and in test [8] were 39.6 µM and 18.7 µM, respectively. Further, the LC50 (concentration giving 50% net cell kill) in test [7] turned out to be 12.3 µM.
`COc1ccc(C2=NN(C3=NC(=O)/C(=C4\C(=O)Nc5ccc(Cl)cc54)S3)C(c3ccc(Cl)cc3)C2)cc1` (stereo not given): in the test on U-251, the growth at 10 µM was -58%. For the same molecule, the GI50 in test [1] came to 0.27 µM; in [2] it was 0.21 µM; in [3] it was 0.27 µM; in [4], 0.2 µM; in [5] it was 0.2 µM; in test [6], 0.27 µM. Also, the results for the GI50 in [7], in [8] and in test [9] were 0.19 µM, 0.2 µM and 0.2 µM, respectively. Also, the TGI was determined as 0.89 µM in test [1]; 0.45 µM in [2]; 0.74 µM in test [3]; 0.44 µM in test [4]; 0.46 µM in [5]; 7.97 µM in [6]. Besides, the TGI is 0.43 µM in test [7], 0.47 µM in [8] and 0.46 µM in test [9]. Further, the values for the CC50 in test [1], in [4] and in test [9] were 91.1 µM, 1.21 µM and 7.93 µM, respectively. In test [2], the LC50 (concentration lethal to 50% of cells) worked out at 8.2 µM. Besides, the LC50 in [3] worked out at 76.2 µM; in test [5] it was 13.8 µM. The LC50 (concentration causing 50% net cell kill) amounted to 31.3 µM in [6] and 25.7 µM in test [8]. The LC50 (concentration giving 50% net cell kill) in test [7] worked out at 12.7 µM.
For `COc1ccc(C2=NN(C3=NC(=O)/C(=C4\C(=O)N(C)c5ccccc54)S3)C(c3ccc(Cl)cc3)C2)cc1` (stereo not given), the growth at 10 µM in the test with NCI-H522 worked out at 102%.
As for `COc1ccc(C2=NN(C3=NC(=O)/C(=C4\C(=O)Nc5ccc(Br)cc54)S3)C(c3ccc(OC)cc3)C2)cc1` (stereo not given), the growth at 10 µM in the test with U-251 stood at 23.9%. Also, the GI50 in test [1] was determined as 0.28 µM; in [2], 0.2 µM; in test [3], 0.27 µM; in test [4], 0.19 µM; in test [5] it was 0.2 µM; in test [6], 0.24 µM. Besides, the results for the GI50 in test [7], in test [8] and in test [9] were 0.2 µM, 0.21 µM and 0.2 µM, respectively. The TGI turned out to be 62.7 µM in [1]; 25.3 µM in test [2]; 0.71 µM in test [3]; 0.41 µM in test [4]; 0.38 µM in [5]; 32.5 µM in [6]. Besides, the TGI in test [7] was found to be 0.405 µM; in test [8] it was 0.48 µM; in test [9] it was 0.43 µM. Besides, the CC50 in test [1] turned out to be 100 µM; in test [4] it was 17.3 µM; in test [9] it was 75.2 µM. In addition, the LC50 (concentration lethal to 50% of cells) in test [2] stood at 50.4 µM. Besides, the LC50 in [3] came to 100 µM; in test [5] it was 64.6 µM. For the same molecule, the LC50 (concentration causing 50% net cell kill) in test [6] was determined as 78.7 µM; in test [8], 66.9 µM. This molecule also displayed an LC50 (concentration giving 50% net cell kill) in test [7] of 70.2 µM.
Turning to `COc1ccc(-c2cc(-c3ccc(OC)cc3)n(C3C(=O)Nc4ccc(Cl)cc43)n2)cc1` (stereo not given), in the test on NCI-H522, the growth at 10 µM amounted to 82%.
